Molecular target: T1, β-cell KATP channel (human SUR1 and human Kir6.2) (Homo sapiens, UniProt Q09428)
T1 construct: gene ABCC8; SUR1 and Kir6.2 co-expressed in COS-1 cells; with ATP-sensitive inward rectifier potassium channel 11
Test: whole-cell patch clamp, inhibition of diazoxide-induced K+ current
Assay type: cell-based

T1 sequence (Q09428 whole entry): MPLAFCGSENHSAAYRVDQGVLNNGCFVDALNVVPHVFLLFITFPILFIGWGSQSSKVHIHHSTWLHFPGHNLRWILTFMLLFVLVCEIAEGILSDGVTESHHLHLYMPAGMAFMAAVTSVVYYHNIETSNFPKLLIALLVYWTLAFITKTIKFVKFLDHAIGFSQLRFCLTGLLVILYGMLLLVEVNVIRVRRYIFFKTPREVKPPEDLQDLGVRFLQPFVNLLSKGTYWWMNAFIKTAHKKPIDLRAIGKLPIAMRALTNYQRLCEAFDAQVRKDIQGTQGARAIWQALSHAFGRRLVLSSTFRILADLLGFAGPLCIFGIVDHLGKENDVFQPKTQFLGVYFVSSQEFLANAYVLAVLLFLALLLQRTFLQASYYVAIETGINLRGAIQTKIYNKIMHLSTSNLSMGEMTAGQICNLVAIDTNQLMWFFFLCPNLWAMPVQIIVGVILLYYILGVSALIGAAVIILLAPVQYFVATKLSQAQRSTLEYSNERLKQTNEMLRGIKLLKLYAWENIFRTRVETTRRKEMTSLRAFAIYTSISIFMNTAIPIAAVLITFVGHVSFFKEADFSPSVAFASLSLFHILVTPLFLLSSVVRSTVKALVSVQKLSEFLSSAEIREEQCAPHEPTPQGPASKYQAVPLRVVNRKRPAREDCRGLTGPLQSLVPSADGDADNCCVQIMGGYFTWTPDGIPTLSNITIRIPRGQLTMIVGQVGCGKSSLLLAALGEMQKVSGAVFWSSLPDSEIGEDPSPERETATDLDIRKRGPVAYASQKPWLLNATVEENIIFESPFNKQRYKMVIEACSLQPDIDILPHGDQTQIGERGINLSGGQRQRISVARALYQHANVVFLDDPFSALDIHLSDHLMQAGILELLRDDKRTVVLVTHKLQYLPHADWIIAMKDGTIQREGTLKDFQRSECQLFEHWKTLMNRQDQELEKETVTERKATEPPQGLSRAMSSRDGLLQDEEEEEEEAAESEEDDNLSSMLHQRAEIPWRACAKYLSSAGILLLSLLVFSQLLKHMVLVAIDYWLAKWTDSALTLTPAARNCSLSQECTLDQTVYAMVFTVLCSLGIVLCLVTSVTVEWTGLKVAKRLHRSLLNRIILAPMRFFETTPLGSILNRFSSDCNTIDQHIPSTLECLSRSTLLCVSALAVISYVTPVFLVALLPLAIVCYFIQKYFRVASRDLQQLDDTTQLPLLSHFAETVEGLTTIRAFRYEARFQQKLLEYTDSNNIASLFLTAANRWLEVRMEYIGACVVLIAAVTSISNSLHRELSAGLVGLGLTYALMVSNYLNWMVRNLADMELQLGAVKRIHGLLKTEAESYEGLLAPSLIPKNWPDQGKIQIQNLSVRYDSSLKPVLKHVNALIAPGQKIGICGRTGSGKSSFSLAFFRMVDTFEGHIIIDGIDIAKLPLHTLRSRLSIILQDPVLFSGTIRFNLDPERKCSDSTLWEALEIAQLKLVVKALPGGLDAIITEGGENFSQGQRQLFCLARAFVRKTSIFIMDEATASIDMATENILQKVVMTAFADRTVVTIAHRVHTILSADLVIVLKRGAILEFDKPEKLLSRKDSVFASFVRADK
T1 sequence (Q14654 whole entry partner): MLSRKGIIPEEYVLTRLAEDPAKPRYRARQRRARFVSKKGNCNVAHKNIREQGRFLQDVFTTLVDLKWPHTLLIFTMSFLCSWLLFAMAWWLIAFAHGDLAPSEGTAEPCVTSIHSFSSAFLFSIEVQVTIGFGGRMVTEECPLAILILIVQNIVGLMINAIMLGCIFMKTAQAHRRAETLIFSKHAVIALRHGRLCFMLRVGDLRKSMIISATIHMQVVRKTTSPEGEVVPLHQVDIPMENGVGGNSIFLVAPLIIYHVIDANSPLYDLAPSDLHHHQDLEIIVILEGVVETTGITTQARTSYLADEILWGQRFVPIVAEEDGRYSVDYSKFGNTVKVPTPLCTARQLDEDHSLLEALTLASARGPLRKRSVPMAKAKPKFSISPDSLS

`Cc1ccc(S(=O)(=O)NC(=O)NN2CC3CCCC3C2)cc1` (stereo not shown) [gliclazide] showed an IC50 of 860 nM.
